Several values for one entry are separate records, joined by “and”; a condition that tells them apart may be missing. Identical values can stand only once. No end group written: not given here.

The assay has as its system LRF (luteinizing hormone release factor) induced luteinizing hormone (LH) release. In words: LRF antagonist activity in vitro in rat anterior pituitary cell cultures. In kind it is cell-based. The source says: Pentapeptides of this invention were screened for LRF antagonist activity in vitro using rat anterior pituitary cell cultures as described by Vale et. al. [Endocrinology, 91, 562 (1972)]. The inhibition of LRF (luteinizing hormone release factor) induced luteinizing hormone (LH) release into the culture medium is the endpoint in this in vitro bioassay.

[1] abbreviates: Molar Conc. 1×10^-6, LRF Control 2.5×10^-10.
The mark [2] stands for this setting: Molar Conc. 1×10^-7, LRF Control 3.5×10^-10.
Setting [3] is: Molar Conc. 2.5×10^-7, LRF Control 3.5×10^-10.
Setting [4] is: Molar Conc. 6×10^-7, LRF Control 3.5×10^-10.
[5] abbreviates: Molar Conc. 6×10^-8, LRF Control 3.5×10^-10.

Turning to “LRF: luteinizing hormone releasing factor, also referred to as luteinizing hormone releasing hormone, or LH-RH; stimulates secretion of luteinizing hormone (QHWSYGLRPG; ends and bridges not checked; UniProt P01148 24-33, looked up) [reference compound]”, the “LH Value” (LRF alone (LRF Control), Molar Conc. 2.5×10^-10) amounted to 38.98 ng/mL; the “LH Value” (LRF alone (LRF Control), Molar Conc. 3.5×10^-10) is 33.78 ng/mL and 41.70 ng/mL and 58.17 ng/mL and 42.57 ng/mL.

For “N-Benzyloxycarbonyl-D-2-azetidinecarbonyl-N^im -benzyl-L-histidyl-O-benzyl-L-tyrosyl-O-benzyl-L-seryl-D-alanine methyl ester”, the “% LH Release Inhibition” value reads like this: under setting [1], 102%; under setting [2], 53%; under setting [3], 78%; under setting [4], 89%; under setting [5], 29%. Also, the “LH Value” runs as follows: under setting [1], 5.72 ng/mL; under setting [2], 33.60 ng/mL; under setting [3], 22.34 ng/mL; under setting [4], 17.18 ng/mL; under setting [5], 44.92 ng/mL.

Values taken from patent US4043993A, “New pentapeptides and methods for their production” (Parke, Davis & Company, priority 1976, dated 1977).
